Data set [1] concerns the target E. coli WbbL (Escherichia coli, UniProt P36667). The data set can be described thus: In vitro inhibition assay of E. coli WbbL with monosaccharides and compound 2. It is filed as biochemical. Particulars: 250 µM dTDP-β-L-Rha, 1 mM GlcNAc-PP-undecaprenol. As for the experimental part: Primers were purchased from Invitrogen and sequencing was completed by GENEWIZ (Azenta) or EtonBio. Chemicals were purchased from Sigma Aldrich, CarboSynth, Fisher Scientific, and Cayman without further purification. 1H, 13C, and 31P NMR spectra were recorded on a Bruker Avance III 400, 500, or 600 MHz instrument. All spectra were calibrated using residual non-deuterated solvent as an internal reference and processed using MestReNova (authorized to NYU). Gel filtration purification and analyses was performing using at AKTA pure 15 L instrument (UNICORN™ software, GE Healthcare). HRMS analyses were acquired on an Agilent 6224 Accurate-Mass time-of-flight LC/MS (LC-TOF) spectrometer equipped with an electrospray ionization (ESI) source with an autosampler. GraphPad Prism software 9.0 was used for all plotting and data analysis unless otherwise noted. Statistical significance of grouped data was assessed using paired t-tests in Prism. For the IC50 calculation, data were fit in Prism using the equation log(inhibitor) versus response (three parameters): y = bottom + (top-bottom)/(1+10^(X-log IC50)) based on the assumption the Hill slope would be 1, as predicted by ITC results with n ~ 1 for donor ligands. Data was normalized to controls without enzyme and with no inhibitor added. Confidence intervals were calculated based on the standard error. 1M TEAB buffer was prepared by suspending triethylamine (1 mol, 139 mL) in water (700 mL) and passing carbon dioxide (from evaporated dry ice) through the mixture until the pH=7.5. The buffer was diluted to 1L and stored as a stock solution at 4 °C. Prior to use it was diluted to 50 mM in deionized H2O […]
Methods for protein and cellular biochemistry/bioinformatics used in this study.
Bioinformatic approach to identify Thermus thermophilus RfbF as a putative glycolipid RT.
The Carbohydrate-Active Enzymes Database (CAZy.org) was used to identify thermophilic organisms with annotated glycosyltransferases (GTs).11-12 Genes annotated as wbbL have been experimentally shown to encode dTDP-rhamnosyltransferases that transfer L-Rha onto N-acetyl--a-D-glucosamine-1-diphospholipid acceptors.13-14 In Shigella flexneri, the protein encoded by rfbF was noted to carry out the same biochemical activity as WbbL based on genetic and LPS analyses.15-16 Both E. coli WbbL and S. flexneri RfbF belong to the GT2 family. A CAZy search for rfbF and wbbL was performed in the genomes of Gram-negative extreme thermophiles, which […]
(GenBank: AAS80876.1), which had not yet been biochemically characterized. Protein ANalysis […]
thermodynamic values were evaluated using ITCRun software (TA Instruments) and fit with a […]
Specific activities were determined by modification of the protocol outlined by Li et al. […]

The subject of data set [2] is E. coli cells with or without wbbL. As to the kind of experiment: Growth inhibition / toxicity of 2 with E. coli (OD600). Particulars: ~2 mM / low millimolar concentrations of 2, E. coli +/- wbbL.
The target of data set [3] is T. thermophilus RfbF (Thermus thermophilus, UniProt Q72KB9). As to the kind of experiment: Isothermal titration calorimetry (ITC) binding measurements with RfbF. The following applies: ITC.
Data set [4] concerns WbbL-dependent O-Ag synthesis in E. coli expressing wbbL. It is filed as cell-based, Escherichia coli.
Data set [5] deals with crude Mtb WbbL. The following applies: cited from earlier work.
The mark [6] stands for this setting: 25 °C, ligand titrated into 110 µM RfbF.

“And” between values parts separate entries of the source, which are not always exact repeats. Equal entries are not always repeated. Where two headings read alike, the source gives them in different places.

Sequence of T. thermophilus RfbF (Q72KB9 entry or part of it): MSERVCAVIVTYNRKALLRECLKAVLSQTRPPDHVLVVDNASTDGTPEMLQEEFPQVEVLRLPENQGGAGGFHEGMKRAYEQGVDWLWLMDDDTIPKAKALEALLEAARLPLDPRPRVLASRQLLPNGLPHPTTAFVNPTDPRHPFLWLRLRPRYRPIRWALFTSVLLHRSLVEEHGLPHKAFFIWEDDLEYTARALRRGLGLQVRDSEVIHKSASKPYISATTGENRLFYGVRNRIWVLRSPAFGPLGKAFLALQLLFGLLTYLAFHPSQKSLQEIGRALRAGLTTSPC
Sequence of E. coli WbbL (P36667 whole entry, looked up): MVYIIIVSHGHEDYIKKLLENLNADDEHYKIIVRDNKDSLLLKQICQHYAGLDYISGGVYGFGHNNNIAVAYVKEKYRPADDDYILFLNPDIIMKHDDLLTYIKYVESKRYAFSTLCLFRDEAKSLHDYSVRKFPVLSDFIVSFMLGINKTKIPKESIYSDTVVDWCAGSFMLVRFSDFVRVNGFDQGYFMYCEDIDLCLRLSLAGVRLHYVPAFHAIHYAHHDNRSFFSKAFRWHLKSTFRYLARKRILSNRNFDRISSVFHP

`C[C@@H]1NC[C@H](O)[C@H](O)[C@H]1O` [compound 2, 1,5-dideoxy-1,5-imino-L-rhamnitol]: the IC50 in data set [1] (0.0101 mg/mL E. coli WbbL, 95% confidence interval, read-out: half maximal inhibitory concentration (IC50)) was ~3000 µM and 3160 µM. Besides, the inhibition at 5000 µM in data set [1] (5 mM inhibitor, 8 min) is ~53%. In data set [2], the “toxicity to E. coli (growth, OD600)” value is “not toxic”. Besides, in data set [3] (ligand titrated into 110 µM RfbF), the “binding to RfbF by ITC (in words)” value is recorded as “no measurable binding”. Moreover, the Kd in data set [3] (KD (beyond measurable limit), 5-10 mM ligand titrated into 110 µM RfbF) is > 1000 µM. In addition, in data set [4] (E. coli expressing wbbL grown with 2 versus untreated, silver stain / anti-O16 blot of purified LPS), the “reduction of O-Ag levels by densitometry” value was ~40%. In data set [4] (E. coli expressing wbbL grown with ~2 mM 2, equivalent number of cells, mass of extracted LPS), the “reduction of LPS produced versus untreated cells” value is given as > 50%.
With `Cc1cn(C2CC(O)C(COP(=O)(O)OP(=O)(O)OC3OC(C)C(O)C(O)C3O)O2)c(=O)[nH]c1=O` [dTDP-β-L-Rha, reference compound], the Km in data set [5] was ~35 µM. Also, in data set [3] (setting [6]), the ΔG is given as -6.77 (.38) kcal/mol, the ΔH is on record as -8.68 (0.59) kcal/mol and the ΔS is given as -6.43 (0.68) cal/mol·K. The Kd in data set [3] (25 °C, ligand titrated into 110 µM RfbF, one-site model, spread = SD, triplicate, read-out: KD) is ~8 µM. The compound also had a Kd in data set [3] (KD, 25 °C, ligand titrated into 110 µM RfbF, one-site model, spread = SD, triplicate) of 8.31 ± 3.66 µM.

Values taken from paper PMC10375533, “Preference of Bacterial Rhamnosyltransferases for 6-Deoxysugars Reveals a Strategy To Deplete O-Antigens” (Journal of the American Chemical Society, 2023).
